Columns and labels:
Caco-2 cells = assay: Caco-2 bidirectional permeability; format: in vitro ADME; conditions: for Caco-2 ER: Efflux Ratio=Papp(BA)/Papp(AB); for Caco-2 A2B (10^−6 cm/s): apical to basolateral; for Caco-2 A2B (10^−6 cm/s) / Caco-2 B2A (10^−6 cm/s): 2 hours, pH 7.4; for Caco-2 B2A (10^−6 cm/s): basolateral to apical
Method: The compounds disclosed herein were tested in vitro on CaCo2 cell penetration according to the following procedures.
Caco-2 cells purchased from ATCC were seeded onto […] (PET) in 96-well Corning Insert plates at 1×10^5 cells/cm^2. The media were refreshed every 4 to 5 days until the 21st to 28th day for confluent cell monolayer formation.
Experiments were run in duplicate using a HBSS transport buffer containing 10 mM HEPES at pH 7.4. The test article TEST COMPOUND was tested bi-directionally at […] concentrations, the control compound digoxin was tested bi-directionally at 10 μM, and nadolol and metoprolol were tested at 2.0 μM in the A to B direction. Final DMSO concentrations were adjusted to less than 1%. The plates were incubated for 2 hours in a CO2 incubator at 37±1° C. with 5% CO2 at saturated humidity without shaking. Following incubation, samples were mixed with acetonitrile containing internal standard and centrifuged at 3200×g for 10 minutes. Then 200 μL of supernatant was taken from all samples. For TEST COMPOUND and digoxin, the supernatant was diluted with 200 μL of ultra-pure water and for nadolol and metoprolol, the supernatant was diluted with 600 μL of ultra-pure water. All samples were analyzed by LC-MS/MS. Concentrations of TEST COMPOUND and control compounds were determined in starting solutions, donor well solutions, and receiver well solutions using peak area ratios (PAR) of analyte to internal standard. After the transport assay, a lucifer yellow rejection assay was run to determine the Caco-2 cell monolayer integrity.
The apparent permeability (Papp), the % recovery and the efflux ratio were calculated as follows:
Papp=(dCr/dt)×Vr/(A×C0) 1.
Efflux Ratio=Papp(BA)/Papp(AB) 3. • Where: • dCr/dt is the slope of the cumulative concentration in the receiver compartment versus time (mM/s). • Vr and Vd is the volume in the receiver and donor compartments (0.075 mL on the apical side, 0.25 mL on the basolateral side), respectively. • A is the surface area of the cell monolayer (0.0804 cm^2). • C0 is the measured donor concentrations (μM) at the beginning of the experiment. • Cd and Cr are the final measured concentrations in the donor and receiver compartments, respectively.

human hepatocyte = assay: Human hepatocyte stability, predicted hepatic clearance (h-Hept CL predict); format: in vitro ADME; conditions: human hepatocytes, 0.5×10^6 cells/mL, 1 μM, values without asterisk
Method: The compounds disclosed herein were tested in vitro on human hepatocyte for in vitro h-Hept CL predict according to the following procedures. • 1. Compound sock solutions were prepared by dissolving test compound and positive control in dimethyl sulfoxide (DMSO) at a concentration of 10 mM. Stock solutions were then diluted to 100 μM solutions by combining 198 μL of 50% acetonitrile/50% water with 2 μL of the 10 mM stock in separate conical tubes. • 2. Cryopreserved hepatocytes were prepared as follows: Incubation medium (William's E Medium supplemented with GlutaMAX) and hepatocyte thawing medium were placed in a 37° C. water bath and allowed to warm for at least 15 minutes prior to use. Cryopreserved hepatocytes were removed from storage, ensuring that vials remained at cryogenic temperatures until thawed. Cells were thawed by placing the vials in a 37° C. water bath and gently shaking the vials for 2 minutes. After thawing was completed, vials were sprayed with 70% ethanol and transferred to a biosafety cabinet. Hepatocytes were transferred into 50 mL conical tube containing thawing medium using wide-bore pipette tips. Tubes were placed into a centrifuge and spun at 100 g for 10 minutes. Then thawing medium was aspirated and hepatocytes were resuspended in enough incubation medium to yield ˜1.5×10^6 cells/mL. Cells were counted using acridine orange and propidium iodide (AO/PI) staining, and the viable cell density was determined. Cells were diluted with incubation medium to a working cell density of 0.5×10^6 viable cells/mL. • 3. To determine hepatocyte stability, 198 μL of hepatocytes were transferred into each well of a 96-well non-coated plate. Plates were placed in an incubator to allow the hepatocytes to warm for 10 minutes. • 4. The reaction was started by transferring 2 μL of the 100 μM test compound or positive control solution into respective wells of the 96-well non-coated plates. Plates were returned to the incubator until 25 μL aliquots of well contents were sampled at time points of 0, 15, 30, 60, 90 and 120 minutes. The aliquots were then mixed with 6 volumes (150 μL) of acetonitrile containing internal standard, IS (100 nM alprazolam, 200 nM caffeine and 100 nM tolbutamide) to terminate the reaction and vortexed for 5 minutes. After centrifuging the samples for 45 minutes at 3,220 g, aliquots of 100 μL of the supernatant were taken and diluted with 100 μL of ultra-pure water. The mixture was used for LC/MS/MS analysis. All incubations were performed in duplicate.
All calculations were carried out using Microsoft Excel. Peak area ratios (PAR) were determined from extracted ion chromatograms. The in vitro half-life (t1/2) of parent compound was determined by regression analysis of the percent parent disappearance vs. time curve as follows:
Conversion of the in vitro t1/2 (in minutes) into the in vitro intrinsic clearance (in vitro CLint, in μL/min/1×10^6 cells) was done using the following equation (mean of duplicate determinations): […]
The scaled-up intrinsic clearance (CLint, mL/min/kg), predicted hepatic clearance (CLH, mL/min/kg) and hepatic extraction ratio (ER) were calculated using the following equations:
CLint=(0.693/t1/2)*(1/(hepatocyte concentration (0.5*10^6 cells/mL)))*scaling factors (Table (A) Appendix Table 1)
CLHept-predict=(QH*Scaled-up CLint*fub)/(QH+Scaled-up CLint*fub)
ER=CLH/QH • Where: • V=incubation volume (0.2 mL) • N=number of hepatocytes per well (0.1*10^6 cells) • QH=hepatic blood flow (mL/min/kg) (Table (A) Appendix Table 1) • fub=fraction of unbound drug in plasma, assumed to be 1

[1] = target: T1, wt human LRRK2, catalytic site (Homo sapiens, UniProt Q5S007); assay: TR-FRET LanthaScreen Tb Kinase Activity Assay, LRRK2 inhibition; format: biochemical; conditions: 2 nM wt human LRRK2, 400 nM peptide, 38 μM ATP
T1 construct: wt human LRRK2, catalytic site, catalytic site (ThermoFisher/USA); purchased ThermoFisher
T1 sequence (Q5S007 1879-2138 limits assumed): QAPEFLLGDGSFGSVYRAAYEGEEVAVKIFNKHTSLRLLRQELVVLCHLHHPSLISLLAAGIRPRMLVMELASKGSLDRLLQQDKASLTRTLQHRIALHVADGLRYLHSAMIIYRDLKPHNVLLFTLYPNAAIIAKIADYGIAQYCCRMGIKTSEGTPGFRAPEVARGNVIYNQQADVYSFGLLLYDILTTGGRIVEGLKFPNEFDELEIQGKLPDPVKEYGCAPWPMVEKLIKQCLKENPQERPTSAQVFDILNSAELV
Method: The compounds disclosed herein were tested for their inhibitory effect on LRRK2 kinase according to the following procedures.
The protocol for basic TR-FRET LanthaScreen Tb Kinase Activity Assay inhibitor studies were as follows. LanthaScreen Kinase Activity Assays (ThermoFisher/USA) to evaluate inhibitors were performed by addition of 100 nL of test compound in corresponding DMSO dilutions/5 μL of kinase/fluorescein-ERM (LRRKtide) peptide mixture, Compound & kinase were pre-incubated for 15 minutes, then 5 μl of ATP into 384 well small volume plates. After incubation for 120 minutes at room temperature, the detection reagents containing Tb-anti-pLRRKtide antibody were added to monitor phosphorylation level of peptide. Then, after 60 min minutes incubation at room temperature plates were read in Envision. Data analysis of emission ratios was according to LanthaScreen Tb Kinase Activity Assay protocol.
Kinase and assay components were adjusted to final concentrations according to the kit protocol. For LRRK2: 2 nM wt human LRRK2, catalytic site, catalytic site (ThermoFisher/USA), 400 nM peptide, 38 μM ATP in 1× Kinase Buffer A. […]
Kinase and assay components were adjusted to final concentrations according to the kit protocol.

Caco-2 ER (Caco-2 cells)	Caco-2 B2A (10^−6 cm/s) (Caco-2 cells)	hHep Cl (mL/min/kg) (human hepatocyte)	IC50 [1] [nM]	Structure (SMILES)	Caco-2 A2B (10^−6 cm/s) (Caco-2 cells)
L (L (Likely)”: ER≥2.5)	H (H (High permeability)”: A2B (B2A)>5)	L (L (Low Cl)”: Hep Cl (mL/min/kg)<6.3)	1 to 100	COC[C@H]1CN(c2cc3c(cn2)NC(c2c(F)cccc2F)=Nc2c(C)n[nH]c2-3)CCO1 [Example 15, (2R)-4-[8-(2,6-difluorophenyl)-5-methyl-3,4,7,9,12-pentazatricyclo[8.4.0.02,6]tetradeca-1(10),2(6),4,7,11,13-hexaen-13-y1]-2-(methoxymethyl)morpholine]	M (M (Moderate permeability)”: 1≤A2B (B2A)≤5)
L (L (Likely)”: ER≥2.5)	H (H (High permeability)”: A2B (B2A)>5)	L (L (Low Cl)”: Hep Cl (mL/min/kg)<6.3)	1 to 100	Cc1n[nH]c2c1N=C(c1c(F)cccc1F)Nc1cnc(N3CCC[C@H](C#N)C3)cc1-2 [Example 19, (3S)-1-[8-(2,6-difluorophenyl)-5-methyl-3,4,7,9,12-pentazatricyclo [8.4.0.02,6]tetradeca-1(10),2(6),4,7,11,13-hexaen-13-yl]piperidine-3-carbonitrile]	M (M (Moderate permeability)”: 1≤A2B (B2A)≤5)
L (L (Likely)”: ER≥2.5)	H (H (High permeability)”: A2B (B2A)>5)	L (L (Low Cl)”: Hep Cl (mL/min/kg)<6.3)	< 1	OCc1ccc(F)c(C2=Nc3c(Cl)n[nH]c3-c3cc(N4CCOCC4)ncc3N2)c1F [Example 21, (3-(3-chloro-9-morpholino-1,6-dihydropyrazolo[4,3-d]pyrido[4,3-f][1,3]diazepin-5-yl)-2,4-difluorophenyl)methanol]	L (L (Low permeability)”: A2B (B2A)<1)
L (L (Likely)”: ER≥2.5)	H (H (High permeability)”: A2B (B2A)>5)	L (L (Low Cl)”: Hep Cl (mL/min/kg)<6.3)	< 1	[2H]C1([2H])OC([2H])([2H])C([2H])([2H])N(c2cc3c(cn2)NC(c2c(F)cccc2F)=Nc2c(Cl)n[nH]c2-3)C1([2H])[2H] [Example 25, 4-[5-chloro-8-(2,6-difluorophenyl)-3,4,7,9,12-pentazatricyclo[8.4.0.02,6]tetradeca-1(10),2(6),4,7,11,13-hexaen-13-yl]-2,2,3,3,5,5,6,6-octadeuterio-morpholine]	M (M (Moderate permeability)”: 1≤A2B (B2A)≤5)
L (L (Likely)”: ER≥2.5)	H (H (High permeability)”: A2B (B2A)>5)	L (L (Low Cl)”: Hep Cl (mL/min/kg)<6.3)	< 1	Cc1n[nH]c2c1N=C(c1c(F)cccc1F)Nc1cnc(-c3cn[nH]c3)cc1-2 [Example 29, 8-(2,6-difluorophenyl)-5-methyl-13-(1H-pyrazol-4-y1)-3,4,7,9,12-pentazatricyclo[8.4.0.02,6]tetradeca-1(10),2(6),4,7,11,13-hexaene]	L (L (Low permeability)”: A2B (B2A)<1)

Structure (SMILES)	Caco-2 ER (Caco-2 cells)	Caco-2 B2A (10^−6 cm/s) (Caco-2 cells)	hHep Cl (mL/min/kg) (human hepatocyte)	IC50 [1] [nM]	Caco-2 A2B (10^−6 cm/s) (Caco-2 cells)
COC[C@@H]1CN(c2cc3c(cn2)NC(c2c(F)cccc2F)=Nc2c(C)n[nH]c2-3)CCO1 [Example 16, (2S)-4-[8-(2,6-difluorophenyl)-5-methyl-3,4,7,9,12-pentazatricyclo[8.4.0.02,6]tetradeca-1(10),2(6),4,7,11,13-hexaen-13-y1]-2-(methoxymethyl)morpholine]	L (L (Likely)”: ER≥2.5)	H (H (High permeability)”: A2B (B2A)>5)	L (L (Low Cl)”: Hep Cl (mL/min/kg)<6.3)	1 to 100	M (M (Moderate permeability)”: 1≤A2B (B2A)≤5)
OCc1cc(F)c(C2=Nc3c(Cl)n[nH]c3-c3cc(N4CCOCC4)ncc3N2)c(F)c1 [Example 22, (4-(3-chloro-9-morpholino-1,6-dihydropyrazolo[4,3-d]pyrido[4,3-f][1,3]diazepin-5-y1)-3,5-difluorophenyl)methanol]	L (L (Likely)”: ER≥2.5)	H (H (High permeability)”: A2B (B2A)>5)	I (I (Intermediate Cl)”: 6.3≤Hep Cl (mL/min/kg)≤14.7)	< 1	L (L (Low permeability)”: A2B (B2A)<1)
Fc1cccc(Cl)c1C1=Nc2c(Cl)n[nH]c2-c2cc(N3CCOCC3)ncc2N1 [Example 24, (4-[5-chloro-8-(2-chloro-6-fluoro-phenyl)-3,4,7,9,12-pentazatricyclo[8.4.0.02,6]tetradeca-1(10),2(6),4,7,11,13-hexaen-13-yl]morpholine)]	L (L (Likely)”: ER≥2.5)	H (H (High permeability)”: A2B (B2A)>5)	I (I (Intermediate Cl)”: 6.3≤Hep Cl (mL/min/kg)≤14.7)	< 1	M (M (Moderate permeability)”: 1≤A2B (B2A)≤5)
Fc1cccc(F)c1C1=Nc2c(Cl)n[nH]c2-c2cc(-c3ccn(CC(F)F)n3)ncc2N1 [Example 30, (3-chloro-9-(1-(2,2-difluoroethyl)-1H-pyrazol-3-yl)-5-(2,6-difluorophenyl)-1,6-dihydropyrazolo[4,3-d]pyrido[4,3-f][1,3]diazepine)]	L (L (Likely)”: ER≥2.5)	H (H (High permeability)”: A2B (B2A)>5)	I (I (Intermediate Cl)”: 6.3≤Hep Cl (mL/min/kg)≤14.7)	< 1	M (M (Moderate permeability)”: 1≤A2B (B2A)≤5)

Reference: patent US20240228493A1, “LRRK2 INHIBITORS AND USES THEREOF” (NEURON23, ICN., priority 2022, published 2024)
